Reference: patent US11040085B2, “Pharmaceutical composition containing F1 polypeptide and/or F3 polypeptide and use thereof” (priority 2016, dated 2021)

Experiments:
[1] = system: Hela cells; assay: MTT assay, growth of human cervical carcinoma cells (HELA) in vitro; assay type: cell-based; details: different dosages, overnight, MTT assay (FIG. 7)
[2] = system: condyloma acuminate; details: topical application of 5% emulsion; cited from earlier work
[3] = system: TC-1 cells; assay type: cell-based; details: different concentrations, incubated overnight, MTT assay (FIG. 1A-1C)
Procedure: (§1) More specifically, in the method, 100 μL of 5×10^3 TC-1 cells cultured in a RPMI medium containing 10% of calf serum were added into a 96-well cell culture plate, the F1 polypeptide (FIG. 1A), the F3 polypeptide (FIG. 1B), and control polypeptide P3 (FIG. 1C) with different concentrations were added respectively and incubated overnight in an incubator with 5% of CO2 at 37° C., and the cell proliferation was determined by a MTT assay.
(§2) 100 μL of 5×10^3 TC-1 cells cultured in a RPMI medium containing 10% of calf serum were added into a 96-well cell culture plate, 5 μg/mL of F1 and/or F3 and control polypeptides P3 and F4 were added respectively and incubated overnight in an incubator with 5% of CO2 at 37° C., and the cell proliferation was determined by a MTT assay.
as §2, with “and/or Imiquimod” for “and control polypeptides P3 and F4”

[4] = system: NP69 cells; assay: MTT assay, immortalized normal cells NP69; assay type: cell-based; details: different concentrations, incubated overnight, MTT assay (FIG. 1D)
Procedure: as §1, with “Immortalized normal cells NP69 were used in another experiment. More” for “More”, “specifically,” for “specifically, in the method,”, “NP69” for “TC-1”, “polypeptide,” for “polypeptide (FIG. 1A),”, “polypeptide,” for “polypeptide (FIG. 1B),”, “1D)” for “1C)”

[5] = system: TC-1 cells; assay: Interaction of FITC-labeled polypeptide with TC-1 cell (flow cytometry, confocal microscopy); assay type: cell-based, mouse; details: 2 μg/mL FITC-labeled polypeptide, flow cytometry (FIG. 5A)
Procedure: The separated protein was digested by trypsin, polypeptides produced from the digestion was labeled by iTRAQ 4-plex reagents, and the labeled polypeptides were quantitatively analyzed by using a system combining a nano high performance liquid chromatography and a triple time of flight mass spectrometer. […] Besides, the F3 polypeptide and a control polypeptide P3 were labeled by fluorescent dye fluorescein isothiocyanate (FITC), incubated together with TC-1 cells for different periods, and repeatedly washed, thereafter a fluorescence intensity of FITC in the TC-1 cell was detected by a flow cytometry (FIG. 5A).
1000 μL of 5×10^5 TC-1 cells cultured in a RPMI medium containing 10% of calf serum were added into a 24-well cell culture plate, 2 μg/mL of the F3 polypeptide labeled by FITC was added into the cells being incubated, cells at different time points of the incubation were collected and washed with PBS buffer solution, and then the relationship between the F3 polypeptide and TC-1 cell was observed by a flow cytometer (FIG. 5A) or a confocal microscopy (FIG. 5B).

[6] = system: TC-1 cells; assay: Stability in vitro (Tests 1-3), MTT assay on TC-1 cells; assay type: cell-based, mouse; details: for inhibiting effect on growth of TC-1 cells at 72th hour: Test 1, 10 μg/ml, incubated 72 hours (FIG. 10A); for activity after being prepared and stored for 7 days: Test 2, stored at minus 20° C. before using, 10 μg/ml, 24 hours incubation (FIG. 10B); for activity in PBS with a pH value of 5.5: Test 3, 10 μg/ml; for activity in PBS with a pH value of 5.5 / activity in PBS heated at 100° C.: 24 hours incubation (FIG. 10C); for activity in PBS heated at 100° C.: Test 3, PBS heated 10 minutes at 100° C. before using
Procedure: RPMI medium containing 10% of calf serum and 5×10^3 TC-1 cells were added into a 96-well cell culture plate; 10 μg/ml of the F1 polypeptide, the F3 polypeptide, and a mixture of F1 and F3 in a ratio of 1:1 were added respectively into the medium and incubated for 72 hours in an incubator with 5% of CO2 at 37° C., and the cell proliferations at 24th hour, 48th hour, and 72th hour were determined respectively by the MTT assay.
The steps in the Test 2 were substantially the same as those in the Test 1, except that the F1 polypeptide and the F3 polypeptide which had been prepared and stored for 0, 1, 3, 5, and 7 days at minus 20° C. respectively before using were added into the medium, and the incubation was performed for 24 hours.
The steps in the Test 3 were substantially the same as those in the Test 1, except that the pH value of the phosphate buffer saline (PBS) in the medium was changed or the PBS is heated for 10 minutes at 100° C. before using, and the incubation was performed for 24 hours. Referring to FIG. 10C, it can be seen that the F1 polypeptide and the F3 polypeptide were still active even in the PBS with a pH value of 5.5 or heated at 100° C.

[7] = system: IL-6; assay: IL-6 level in TC-1 culture solution by ELISA; assay type: cell-based, mouse; details: for change of IL-6 levels with increase of concentration: 5 μg/mL to 10 μg/mL, overnight (FIG. 12A, 12B); for IL-6 level in TC-1 culture solution: 5 μg/mL, overnight, vs untreated solution or P3 polypeptide (FIG. 12A)
Procedure: FIGS. 12A and 12B are graphs illustrating IL-6 levels (detected by ELISA) in TC-1 culture solutions treated by 5 μg/mL and 10 μg/mL of the P3 polypeptide, the F1 polypeptide, the F3 polypeptide, and a mixture of F1 and F3 overnight, respectively. […] IL-6 levels were decreased with increase of concentration of the F1 polypeptide, the F3 polypeptide, or the mixture of F1 and F3, which may be resulted from apoptosis of TC-1 cells induced by high concentration of the F1 polypeptide, the F3 polypeptide, or the mixture of F1 and F3.

[8] = system: tumor; details: M. A. Apponyi, et al., Peptides, 2004, 25, 1035; cited from earlier work

Compound | inhibiting effect on growth of Hela cells in vitro [1] | recurrence rate [2] | inhibiting effect on growth of TC-1 cells [3] | inhibiting effect on NP69 cells [4] | time at which FITC was found in TC-1 cell [5] [min] | time of peak fluorescence intensity of FITC in TC-1 cell [5] [h] | inhibiting effect on growth of TC-1 cells at 72th hour [6] | activity after being prepared and stored for 7 days [6] | activity in PBS with a pH value of 5.5 [6] | activity in PBS heated at 100° C. [6] | change of IL-6 levels with increase of concentration [7] | IL-6 level in TC-1 culture solution [7] | effect on tumor [8]
CC(C)Cn1cnc2c(N)nc3ccccc3c21 [Imiquimod] | inhibiting effect | about 10% |  |  |  |  |  |  |  |  |  |  | 
F3 polypeptide: polypeptide of SEQ ID NO: 2, sequence found in tree frog secretion, made by solid phase peptide synthesis; Caerin polypeptide (GLFGVLGSIAKHLLPHVVPVIAEKL; the sequence is synthesized) |  |  | obvious inhibiting effects | no inhibiting effect | 15 | 2 | significant inhibiting effects | not reduced | still active | still active | decreased | significantly higher | 
F1 polypeptide: polypeptide of SEQ ID NO: 1, sequence found in tree frog secretion, made by solid phase peptide synthesis; Caerin polypeptide (GLLSVLGSVAKHVLPHVVPVIAEHL; the sequence is synthesized) |  |  | obvious inhibiting effects | no inhibiting effect |  |  | significant inhibiting effects | not reduced | still active | still active | decreased | significantly higher | inhibiting effect on tumor
